Test results reported in ChEMBL document CHEMBL4390668, “Discovery and Structural Optimization of Acridones as Broad-Spectrum Antimalarials” (J Med Chem, 2019).
Calls of active or inactive are those of the source. The rule behind the calls is not given here.

Key:
Plasmodium falciparum [1] = test: Antimalarial activity against drug-resistant Plasmodium falciparum Dd2 harboring M133I mutant infected in human erythrocytes after 72 hrs by SYBR green 1-based fluorescence assay; format: functional, organism-based; conditions: Dd2, 72 h
Plasmodium falciparum [2] = test: Antimalarial activity against drug-resistant Plasmodium falciparum Dd2 harboring M133I/A138T double mutant infected in human erythrocytes after 72 hrs by SYBR green 1-based fluorescence assay; format: functional, organism-based; conditions: Dd2, 72 h
Plasmodium falciparum [3] = test: Antimalarial activity against drug-resistant Plasmodium falciparum Dd2 harboring V259L mutant infected in human erythrocytes after 72 hrs by SYBR green 1-based fluorescence assay; format: functional, organism-based; conditions: Dd2, 72 h
Plasmodium falciparum [4] = test: Inhibition of Plasmodium falciparum cytochrome b-c1
Plasmodium falciparum [5] = test: Antimalarial activity against multidrug-resistant Plasmodium falciparum Dd2 infected in human erythrocytes by SYBR green 1-based fluorescence assay; format: functional, organism-based
[6] = Half life in mouse liver microsomes at 1 uM by LC-MS analysis; format: ADME, Microsome
Plasmodium falciparum [7] = test: Antimalarial activity against atovaquone-resistant Plasmodium falciparum Tm90-C2B infected in human erythrocytes by SYBR green 1-based fluorescence assay; format: functional, organism-based
Plasmodium falciparum [8] = test: Antimalarial activity against chloroquine-sensitive Plasmodium falciparum D6 infected in human erythrocytes by SYBR green 1-based fluorescence assay; format: functional, organism-based
[9] = Half life in human liver microsomes at 1 uM by LC-MS analysis; format: ADME, Microsome
Plasmodium falciparum [10] = test: Antimalarial activity against multidrug-resistant Plasmodium falciparum 7G8 infected in human erythrocytes by SYBR green 1-based fluorescence assay; format: functional, organism-based
[11] = Selectivity index, ratio of IC50 for human HepG2 cells to IC50 for chloroquine-sensitive Plasmodium falciparum D6 infected in human erythrocytes; format: toxicity, cell-based; conditions: read-out: Ratio IC50
HepG2 = test: Cytotoxicity against human HepG2 cells measured after 24 to 36 hrs by resazurin dye based fluorescence assay; format: cell-based
Plasmodium berghei = test: Antimalarial activity against luciferase-expressing Plasmodium berghei ANKA 676m1cl1 sporozoites infected in human HepG2A16 cells measured after 45 hrs by luciferase-luciferin based reporter assay; format: functional, organism-based; conditions: ANKA 676m1cl1, HepG2A16, 45 h
[12] = Mutagenicity in Salmonella typhimurium TA100 assessed as increase in revertant colonies up to 10 uM in absence of S9 fraction by Ames test; format: toxicity; conditions: salmonella enterica subsp. enterica serovar typhimurium
[13] = Mutagenicity in Salmonella typhimurium TA100 assessed as increase in revertant colonies up to 10 uM in presence of S9 fraction by Ames test; format: toxicity, subcellular; conditions: salmonella enterica subsp. enterica serovar typhimurium
[14] = Mutagenicity in Salmonella typhimurium TA98 assessed as increase in revertant colonies up to 10 uM in absence of S9 fraction by Ames test; format: toxicity; conditions: salmonella enterica subsp. enterica serovar typhimurium
[15] = Mutagenicity in Salmonella typhimurium TA98 assessed as increase in revertant colonies up to 10 uM in presence of S9 fraction by Ames test; format: toxicity, subcellular; conditions: salmonella enterica subsp. enterica serovar typhimurium
Plasmodium yoelii = test: Antimalarial activity against blood stage Plasmodium yoelii MR4 MRA-428 infected in CF1 mouse assessed as suppression of parasitemia administered once daily via oral gavage for 4 days starting from 24 hrs post-infection and measured post-last dose by Giemsa-staining based microscopic analysis; format: functional
hERG (KCNH2) = hERG (KCNH2) (Homo sapiens, UniProt Q12809); test: Inhibition of human ERG expressed in CHOK1 cells at 10 uM by automated patch clamp method relative to control; format: cell-based; conditions: CHO-K1 cells that express hERG
hERG (KCNH2), sequence (Q12809 whole entry): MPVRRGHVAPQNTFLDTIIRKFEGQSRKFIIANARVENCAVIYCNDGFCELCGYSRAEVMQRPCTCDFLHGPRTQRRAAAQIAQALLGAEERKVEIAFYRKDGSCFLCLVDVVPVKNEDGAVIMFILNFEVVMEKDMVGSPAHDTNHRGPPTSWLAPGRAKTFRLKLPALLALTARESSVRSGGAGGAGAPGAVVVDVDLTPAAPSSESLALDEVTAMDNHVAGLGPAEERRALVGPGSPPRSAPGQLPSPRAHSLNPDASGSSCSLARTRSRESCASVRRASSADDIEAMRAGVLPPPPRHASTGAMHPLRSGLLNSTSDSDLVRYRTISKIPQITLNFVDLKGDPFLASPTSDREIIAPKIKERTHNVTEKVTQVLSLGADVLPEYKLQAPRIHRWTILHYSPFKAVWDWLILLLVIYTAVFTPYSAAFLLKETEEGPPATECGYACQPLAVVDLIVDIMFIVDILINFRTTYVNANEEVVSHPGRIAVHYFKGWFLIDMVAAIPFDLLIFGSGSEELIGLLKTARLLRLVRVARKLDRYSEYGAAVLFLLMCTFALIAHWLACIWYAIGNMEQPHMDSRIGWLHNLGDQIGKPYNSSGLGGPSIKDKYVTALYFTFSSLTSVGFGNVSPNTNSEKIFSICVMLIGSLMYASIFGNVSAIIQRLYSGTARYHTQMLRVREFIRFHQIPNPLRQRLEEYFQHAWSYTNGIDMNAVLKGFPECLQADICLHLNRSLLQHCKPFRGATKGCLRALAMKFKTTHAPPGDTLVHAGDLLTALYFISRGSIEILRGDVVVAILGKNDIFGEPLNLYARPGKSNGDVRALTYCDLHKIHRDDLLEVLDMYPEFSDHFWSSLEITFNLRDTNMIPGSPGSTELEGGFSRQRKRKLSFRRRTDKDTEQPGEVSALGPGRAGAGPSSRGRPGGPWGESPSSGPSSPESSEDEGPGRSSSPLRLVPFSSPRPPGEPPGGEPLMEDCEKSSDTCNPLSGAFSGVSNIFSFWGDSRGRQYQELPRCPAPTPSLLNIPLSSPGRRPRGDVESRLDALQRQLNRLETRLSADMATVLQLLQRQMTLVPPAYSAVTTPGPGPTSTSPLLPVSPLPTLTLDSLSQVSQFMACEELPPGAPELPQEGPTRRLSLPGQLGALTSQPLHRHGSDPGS

Structure (SMILES) | IC50 (Plasmodium falciparum [1]) | IC50 (Plasmodium falciparum [2]) | IC50 (Plasmodium falciparum [3]) | inhibition (Plasmodium falciparum [4]) | IC50 (Plasmodium falciparum [5]) | half-life at 1 µM [6] | IC50 (Plasmodium falciparum [7]) | IC50 (Plasmodium falciparum [8]) | half-life at 1 µM [9] | IC50 (Plasmodium falciparum [10]) | selectivity ratio [11] | IC50 (HepG2) | IC50 (Plasmodium berghei) | Activity [12] | Activity [13] | Activity [14] | Activity [15] | ED50 (Plasmodium yoelii) | ED90 (Plasmodium yoelii) | inhibition at 10 µM (hERG (KCNH2))
O[C@@H](c1cc(C(F)(F)F)nc2c(C(F)(F)F)cccc12)[C@H]1CCCCN1 [(S,R)-MEFLOQUINE] | 14 nM | 13 nM | 23 nM | inactive | 18 nM | – | – | – | – | – | – | – | – | – | – | – | – | – | – | –
O=c1c2ccc(OCCCCl)cc2[nH]c2cc(Cl)cc(Cl)c12 | – | – | – | – | 2.9 nM | 55 min | 70 nM | 2.2 nM | > 60 min | 6.6 nM | > 45500 | > 100000 nM | 523 nM | – | – | – | – | – | – | –
O=c1c2ccc(OCCNC34CC5CC(CC(C5)C3)C4)cc2[nH]c2ccc(Cl)c(Cl)c12 | – | – | 1100 nM | inactive | 77 to 390 nM | – | 163 nM | 30 nM | – | 176 nM | 333 | 10000 nM | 86 nM | – | – | – | – | – | – | –
O=c1c2ccc(OCCCC(F)(F)F)cc2[nH]c2cc(F)cc(F)c12 | – | – | – | – | 0.033 nM | 59 min | 40 nM | 0.027 nM | > 60 min | 0.5 nM | > 200000 | > 200000 nM | 48 nM | – | – | – | – | – | – | –
CCN(CC)CCOc1ccc2c(=O)c3ccc(F)cc3[nH]c2c1 | – | – | – | – | 485 nM | > 60 min | 1670 nM | 377 nM | > 60 min | 353 nM | 127 | 47900 nM | 119 nM | – | – | – | – | – | – | –
CC(C)(C)NCCOc1ccc2c(=O)c3c(Cl)c(Cl)ccc3[nH]c2c1 | – | – | 3070 nM | inactive | 139 to 679 nM | – | > 2500 nM | 106 nM | – | 295 nM | 362 | 38400 nM | – | – | – | – | – | – | – | –
CCCN(CCC)CCOc1ccc2c(=O)c3c(Cl)cc(OC)cc3[nH]c2c1 | – | – | – | – | 4.2 nM | 10 min | 81 nM | 0.65 nM | 7 min | 6.2 nM | > 308000 | > 200000 nM | 2.9 nM | – | – | – | – | – | – | –
O=c1c2ccc(OCCN(CCC(F)(F)F)CCC(F)(F)F)cc2[nH]c2cc(F)cc(F)c12 | – | – | – | – | 0.015 nM | 33 min | 2 nM | 0.002 nM | 20 min | 0.016 nM | > 100000 | > 100000 nM | 0.09 nM | Non-Toxic | Non-Toxic | Non-Toxic | Non-Toxic | 0.66 mg/kg.day | 2.53 mg/kg.day | 17%
CCCN(CCC)CCOc1ccc2c(=O)c3c(Cl)cc(Cl)cc3[nH]c2c1 | – | – | – | – | 0.003 nM | > 60 min | 153 nM | – | > 60 min | 0.006 nM | – | – | 3.7 nM | Non-Toxic | Non-Toxic | Non-Toxic | Non-Toxic | 0.21 mg/kg.day | 3.54 mg/kg.day | 38%
CN1CCCC1CCOc1ccc2c(=O)c3c(Cl)c(Cl)ccc3[nH]c2c1 (stereo unspecified) | – | – | 3110 nM | inactive | 172 to 616 nM | – | 368 nM | 48 nM | – | 440 nM | 992 | 47600 nM | – | – | – | – | – | – | – | –
CCN(CC)CCCC(C)Nc1ccnc2cc(Cl)ccc12 (stereo unspecified) [CHLOROQUINE] | – | – | 260 nM | inactive | – | – | – | – | – | – | – | – | – | – | – | – | – | – | – | –
CCN(CC)CCOc1ccc2c(=O)c3ccc(Br)cc3[nH]c2c1 | – | – | – | – | 34 nM | > 60 min | 968 nM | 25 nM | > 60 min | 37 nM | > 1600 | > 40000 nM | 100 nM | – | – | – | – | – | – | –
